This is an account of results in ChEMBL document CHEMBL5385881, “Design, synthesis, and discovery of Eudistomin Y derivatives as lysosome-targeted antiproliferation agents” (Eur J Med Chem, 2023).

The nature of series [1]: Drug uptake in human MDA-MB-231 cells assessed as accumulation by measuring lysosome-specific fluorescent signals at 2 uM incubated for 1 hrs by confocal laser-scanning microscopic analysis. It counts as ADME, cell-based. As to conditions: mda-mb-231, 1 h.
Series [2] can be described thus: Drug uptake in human MDA-MB-231 cells assessed as accumulation by measuring fluorescent signals at 1 uM incubated for 1 hrs by confocal laser-scanning microscopic analysis. It counts as ADME, cell-based. As to conditions: mda-mb-231, 1 h.
In series [3] the test system is SGC-7901. The series is described as follows: Induction of cell cycle arrest in human SGC-7901 cells assessed as accumulation of cells at G2/M phase at 50 uM incubated for 24 hrs by PI staining based flow cytometric analysis (reference value: 0.18%). It counts as functional. (In flow cytometry, cells or beads pass a laser one at a time.)
Series [4] concerns MDA-MB-231. The series is described as follows: Induction of cell cycle arrest in human MDA-MB-231 cells assessed as accumulation of cells at G0/G1 phase at 5 uM incubated for 24 hrs by PI staining based flow cytometric analysis (reference value: 62.73%). The format is functional.
Series [5] relates to MDA-MB-231. Description: Induction of autophagy in human MDA-MB-231 cells assessed as fold increase in LC3I/II protein level at 5 uM measured after 6 hrs by Western blot analysis relative to control. The format is functional.
In series [6] the test system is MDA-MB-231. Description: Induction of autophagy in human MDA-MB-231 cells assessed as fold increase in Lamp1 level at 15 uM measured after 6 hrs by Western blot analysis relative to control. The format is functional. On the technique in general: In western blotting, separated proteins are transferred to a membrane and probed.
The test system of series [7] is MDA-MB-231. The series is described as follows: Cytotoxicity against human MDA-MB-231 cells assessed as cell inhibition measured after 72 hrs by MTT assay. The format is functional, cell-based. As to conditions: MDA-MB-231, 72 h. For orientation: Tetrazolium dyes change colour on reduction, which living cells bring about.
The subject of series [8] is MDA-MB-231. The series is described as follows: Antiproliferative activity against human MDA-MB-231 cells assessed as cell viability in presence of 3-MA at 10 to 50 uM measured after 72 hrs by MTT assay. The format is functional, cell-based. The conditions noted are these: dose 10-50 µM.
Series [9] concerns MDA-MB-231. Description: Induction of cell cycle arrest in human MDA-MB-231 cells assessed as accumulation of cells at G2/M phase at 10 uM incubated for 24 hrs by PI staining based flow cytometric analysis (reference value: 7.47%). The format is functional.
Series [10] relates to SGC-7901. The series is described as follows: Induction of cell cycle arrest in human SGC-7901 cells assessed as accumulation of cells at S phase at 5 uM incubated for 24 hrs by PI staining based flow cytometric analysis (reference value: 40.15%). The format is functional.
Series [11] relates to MDA-MB-231. The series is described as follows: Induction of cell cycle arrest in human MDA-MB-231 cells assessed as accumulation of cells at G2/M phase at 20 uM incubated for 24 hrs by PI staining based flow cytometric analysis (reference value: 7.47%). The format is functional.
The nature of series [12]: Reduction in CDK1 level in human MDA-MB-231 cells assessed as fold change at 5 uM measured after 72 hrs by Western blot analysis relative to control. It counts as functional.
Series [13] in a line: Reduction in CDK1 level in human MDA-MB-231 cells assessed as fold change at 10 uM measured after 72 hrs by Western blot analysis relative to control. It counts as functional.
For series [14], the system named is MDA-MB-231. The series is described as follows: Induction of cell cycle arrest in human MDA-MB-231 cells assessed as accumulation of cells at G0/G1 phase at 10 uM incubated for 24 hrs by PI staining based flow cytometric analysis (reference value: 62.73%). The format is functional.
For series [15], the system named is SGC-7901. Description: Induction of cell cycle arrest in human SGC-7901 cells assessed as accumulation of cells at G2/M phase at 5 uM incubated for 24 hrs by PI staining based flow cytometric analysis (reference value: 0.18%). It counts as functional.
The subject of series [16] is MDA-MB-231. The series is described as follows: Induction of autophagy in human MDA-MB-231 cells assessed as increase in acidic vesicle formation by measuring fluorescence signal from lyso-red Tracker at 10 to 20 uM measured after 24 hrs by Lyso-RedTracker staining based confocal laser-scanning microscopic analysis. The format is functional, cell-based. As to conditions: dose 10-20 µM.

Calls of active or inactive are those of the source. The rule behind the calls is not given here.

Broadly, the IC50 is the point on the concentration scale where inhibition reaches its midpoint. For `COc1ccc(Cn2c3ccccc3c3ccnc(C(=O)c4ccccc4)c32)cc1`, the Drug uptake entry in series [1] and in series [2] was “Active” throughout. For the same molecule, the Activity in the series with SGC-7901 [3] was 50.5%; with MDA-MB-231 [4] it was 64.23%; with MDA-MB-231 [9], 18.53%; with SGC-7901 [10], 40.21%; in the series on MDA-MB-231 [11], 48.37%; in the series with MDA-MB-231 [14], 49.96%. Also, in the series on SGC-7901 [15], the Activity is reported as 18.43%. For the same molecule, the “fold change (FC)” value worked out at 1.12 in the series with MDA-MB-231 [5], 1.39 in the series with MDA-MB-231 [6], 0.78 in [12] and 0.52 in series [13]. Besides, in the series on MDA-MB-231 [7], the IC50 worked out at 20.5 µM. The result in the series on MDA-MB-231 [8] was inactive. In addition, the outcome in the series with MDA-MB-231 [16] was Active.
